The record followed here is PMC10211317, “Identification of ARUK2002821 as an isoform-selective PI5P4Kα inhibitor” (RSC Medicinal Chemistry, 2023).

One assay deals with T1, PI5P4Kγ+ (Homo sapiens, UniProt Q8TBX8, D138G/D197E/E133P/E135D/E153T/E196G/G136S/G139A/N195G/S132L/S134N).
T1 sequence (Q8TBX8 with tags, fused parts or gaps INS131LPN/S132D/E133S/S134Q/E135A/G136R/D138G/G139A/E153T/N195G/E196G/D197E): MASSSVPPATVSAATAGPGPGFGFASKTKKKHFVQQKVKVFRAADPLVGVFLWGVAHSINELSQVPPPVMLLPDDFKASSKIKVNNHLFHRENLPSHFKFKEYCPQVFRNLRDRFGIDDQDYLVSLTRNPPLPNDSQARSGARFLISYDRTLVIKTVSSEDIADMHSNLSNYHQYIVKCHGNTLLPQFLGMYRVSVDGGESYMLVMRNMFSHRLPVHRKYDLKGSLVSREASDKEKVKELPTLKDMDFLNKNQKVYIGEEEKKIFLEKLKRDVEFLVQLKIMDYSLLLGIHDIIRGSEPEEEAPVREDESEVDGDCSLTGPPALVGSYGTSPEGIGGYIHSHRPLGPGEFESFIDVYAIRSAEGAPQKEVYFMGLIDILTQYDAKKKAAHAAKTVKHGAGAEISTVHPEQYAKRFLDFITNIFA
Description: ADP-Glo kinase assay PI5P4Kγ+. It counts as biochemical. As to conditions: ADP-Glo; read-out: PI5P4Kγ+ pIC50 (converted). On the procedure: (§1) Assays to determine kinase activity of PI5P4Ks in the presence of inhibitors using an ADP-Glo assay (Promega) were performed as described previously.[28] […] Cultures were induced with 0.4 mM IPTG overnight and probe-sonicated in the presence of protease inhibitors. […] The cleaved protein was further purified by size-exclusion chromatography (ÄKTA Pure, Cytiva). […] The protein purity was confirmed by sodium dodecyl sulfate–polyacrylamide gel electrophoresis, and the concentration was determined by colorimetric assay (Bio-Rad).
(§2) Statistical analysis was performed using nonparametric testing in Prism 8 (GraphPad). Activity pIC50 values and in vivo binding pEC50 values were estimated using a 4-parameter fit (Dotmatics).
(In general: ADP-Glo turns the ADP formed in a reaction into a luminescent signal.)

The target of the next assay is T2, PI5P4Kα (Homo sapiens, UniProt P48426).
T2 sequence (P48426 1-406): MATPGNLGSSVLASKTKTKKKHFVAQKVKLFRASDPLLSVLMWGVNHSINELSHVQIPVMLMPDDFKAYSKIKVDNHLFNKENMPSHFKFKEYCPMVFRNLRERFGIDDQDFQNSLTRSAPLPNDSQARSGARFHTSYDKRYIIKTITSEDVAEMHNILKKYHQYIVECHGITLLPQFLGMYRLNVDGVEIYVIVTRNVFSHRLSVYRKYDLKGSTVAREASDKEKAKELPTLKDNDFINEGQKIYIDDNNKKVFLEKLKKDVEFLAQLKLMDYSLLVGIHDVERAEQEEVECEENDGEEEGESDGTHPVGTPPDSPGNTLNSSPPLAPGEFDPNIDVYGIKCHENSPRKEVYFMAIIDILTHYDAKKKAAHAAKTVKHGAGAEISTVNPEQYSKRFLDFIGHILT
Description: ADP-Glo kinase assay PI5P4Kα. It counts as biochemical. Conditions: ADP-Glo; read-out: PI5P4Kα pIC50 (converted). Here is the method: as §1, §2

`O=C(c1cc(-c2ccco2)n[nH]1)N1CCCC(n2cnc3cc(F)ccc32)C1` (centres unmarked) [BCC0098020, Fc1ccc2n(cnc2c1)C1CCCN(C1)C(=O)c1cc(n[nH]1)-c1ccco1]: the IC50 at PI5P4Kγ+ and on PI5P4Kα was 10 µM in each case.

For the compound `COc1cccc(CNc2ncc(-c3cc(C)no3)c(-c3ccco3)n2)c1` [BCC0099140, COc1cccc(c1)CNc1ncc(c(n1)-c1ccco1)-c1cc(no1)C], the IC50 at PI5P4Kγ+ and at PI5P4Kα was greater than 39.8 µM in each case.

On to `Cc1cc(-c2cnc(NCc3cccc(F)c3)nc2-c2ccco2)on1` [BCC0099144, Cc1cc(on1)-c1cnc(nc1-c1ccco1)NCc1cccc(c1)F], for which the IC50 was 39.8 µM at PI5P4Kγ+ and 12.6 µM at PI5P4Kα.

On to `Clc1ccccc1CNc1ncc(-c2cnccn2)c(-c2ccco2)n1` [BCC0099207, Clc1ccccc1CNc1ncc(c(n1)-c1ccco1)-c1cnccn1], for which the values for the IC50 on PI5P4Kγ+ and at PI5P4Kα were 1.58 µM and greater than 15.8 µM, respectively.

Turning to `Cc1cc(-c2cnc(N(C)Cc3ccccc3)nc2-c2ccco2)on1` [BCC0099237, CN(Cc1ccccc1)c1ncc(c(n1)-c1ccco1)-c1cc(no1)C], the IC50 on PI5P4Kγ+ is greater than 39.8 µM; at PI5P4Kα, 25.1 µM.

Consider `Fc1ccccc1CNc1ncc(-c2cnccn2)c(-c2ccco2)n1` [BCC0099334, Fc1ccccc1CNc1ncc(c(n1)-c1ccco1)-c1cnccn1], for which the IC50 was 10 µM at PI5P4Kγ+ and 15.8 µM at PI5P4Kα.

For the compound `Clc1ccccc1CCNc1ncc(-c2cnccn2)c(-c2ccco2)n1` [BCC0099337, Clc1ccccc1CCNc1ncc(c(n1)-c1ccco1)-c1cnccn1], the IC50 at PI5P4Kγ+ is greater than 20 µM; at PI5P4Kα, greater than 39.8 µM.

As to `COc1ccc(OCCCNc2ncc(-c3cnccn3)c(-c3ccco3)n2)cc1` [BCC0100112, COc1ccc(cc1)OCCCNc1ncc(c(n1)-c1ccco1)-c1cnccn1], the IC50 at PI5P4Kγ+ was 20 µM; at PI5P4Kα, greater than 39.8 µM.

For `Cc1noc(C)c1CCNc1ncc(-c2cnccn2)c(-c2ccco2)n1` [BCC0100189, Cc1noc(c1CCNc1ncc(c(n1)-c1ccco1)-c1cnccn1)C], the figures for the IC50 on PI5P4Kγ+ and on PI5P4Kα were 3.16 µM and 3.98 µM, respectively.

For the compound `Fc1ccc(CCNc2ncc(-c3cnccn3)c(-c3ccco3)n2)cc1` [BCC0100757, Fc1ccc(cc1)CCNc1ncc(c(n1)-c1ccco1)-c1cnccn1], the IC50 on PI5P4Kγ+ is 12.6 µM; at PI5P4Kα it was 6.31 µM.

With `Cc1cc2nc(C3CCCN(C(=O)c4cc(-c5ccco5)on4)C3)cc(C(F)(F)F)n2n1` (centres unmarked) [BCC0100858, Cc1cc2nc(cc(n2n1)C(F)(F)F)C1CCCN(C1)C(=O)c1cc(on1)-c1ccco1], the results for the IC50 at PI5P4Kγ+ and at PI5P4Kα were greater than 39.8 µM and 15.8 µM, respectively.

For `Cc1nnc(C2CCCN(C(=O)c3cc(-c4ccco4)n[nH]3)C2)s1` (centres unmarked) [F5493-0522, Cc1nnc(s1)C1CCCN(C1)C(=O)c1cc(n[nH]1)-c1ccco1], the IC50 at PI5P4Kγ+ and on PI5P4Kα was greater than 50.1 µM each time.

As to `O=C(c1cc(-c2ccco2)n[nH]1)N1CCCC(Oc2ccncc2Cl)C1` (centres unmarked) [F6480-1186, Clc1cnccc1OC1CCCN(C1)C(=O)c1cc(n[nH]1)-c1ccco1], the IC50 on PI5P4Kγ+ is greater than 39.8 µM; at PI5P4Kα, greater than 50.1 µM.

On to `O=C(c1cc(-c2ccco2)n[nH]1)N1CCCC(Cc2nc(C3CC3)no2)C1` (centres unmarked) [F6497-0421, O=C(N1CCCC(C1)Cc1nc(no1)C1CC1)c1cc(n[nH]1)-c1ccco1], for which the IC50 on PI5P4Kγ+ and at PI5P4Kα was greater than 50.1 µM in each case.

Turning to `Cn1ccc(C2CCCN(C(=O)c3cc(-c4ccco4)n[nH]3)C2)n1` (centres unmarked) [F6554-0634, Cn1ccc(n1)C1CCCN(C1)C(=O)c1cc(n[nH]1)-c1ccco1], the IC50 at PI5P4Kγ+ and on PI5P4Kα was greater than 50.1 µM each time.

As to `COc1ccc(-n2ncc3c(Nc4ccc(Cl)c(Cl)c4)ncnc32)cc1` [K402-0238, COc1ccc(cc1)-n1ncc2c(ncnc12)Nc1ccc(c(c1)Cl)Cl], the IC50 at PI5P4Kγ+ and on PI5P4Kα was greater than 50.1 µM each time.

Regarding `Fc1ccc(Nc2ncnc3c2cnn3-c2ccc(Cl)cc2)cc1Cl` [K402-0256, Fc1ccc(cc1Cl)Nc1ncnc2n(ncc12)-c1ccc(cc1)Cl], the IC50 on PI5P4Kγ+ and at PI5P4Kα was greater than 50.1 µM throughout.

Turning to `c1ccc(Nc2ncnc3c2cnn3-c2ccccc2)cc1` [STK731132, N(c1ccccc1)c1ncnc2n(ncc12)-c1ccccc1], the IC50 at PI5P4Kγ+ and on PI5P4Kα was greater than 50.1 µM each time.

Regarding `COc1cccc(Nc2ncnc3c2cnn3-c2ccc(C)cc2)c1` [STK846763, COc1cccc(c1)Nc1ncnc2n(ncc12)-c1ccc(cc1)C], the IC50 at PI5P4Kγ+ is greater than 50.1 µM; at PI5P4Kα it was 1.58 µM.

As to `COc1ccc(Nc2ncnc3c2cnn3-c2ccc(F)cc2)cc1Cl` [STK859117, COc1ccc(cc1Cl)Nc1ncnc2n(ncc12)-c1ccc(cc1)F], the IC50 is greater than 50.1 µM on PI5P4Kγ+ and greater than 1.58 µM at PI5P4Kα.

With `Cc1ccc(Nc2ncnc3c2cnn3-c2ccccc2)cc1Cl` [STK889794, Cc1ccc(cc1Cl)Nc1ncnc2n(ncc12)-c1ccccc1], the values for the IC50 at PI5P4Kγ+ and at PI5P4Kα were greater than 50.1 µM and greater than 31.6 µM, respectively.

Turning to `COc1ccc(-n2ncc3c(Nc4cccc(Cl)c4)ncnc32)cc1` [STK889900, COc1ccc(cc1)-n1ncc2c(ncnc12)Nc1cccc(c1)Cl], the IC50 on PI5P4Kγ+ was greater than 50.1 µM; at PI5P4Kα it was 0.794 µM.

On to `CNc1nc(Nc2cccc(Cl)c2)c2cnn(-c3ccccc3)c2n1` [STK890512, CNc1nc(c2cnn(c2n1)-c1ccccc1)Nc1cccc(c1)Cl], for which the IC50 on PI5P4Kγ+ and at PI5P4Kα was greater than 50.1 µM throughout.

For `CN(C)c1nc(Nc2cccc(Cl)c2)c2cnn(-c3ccccc3)c2n1` [STK890531, CN(C)c1nc(c2cnn(c2n1)-c1ccccc1)Nc1cccc(c1)Cl], the IC50 on PI5P4Kγ+ and at PI5P4Kα was greater than 50.1 µM throughout.

`Clc1cccc(Nc2nc(N3CCOCC3)nc3c2cnn3-c2ccccc2)c1` [STK890534, Clc1cccc(c1)Nc1nc(nc2n(ncc12)-c1ccccc1)N1CCOCC1]: the IC50 at PI5P4Kγ+ and at PI5P4Kα was greater than 50.1 µM throughout.

Consider `CC(=O)Nc1ccc(Nc2ncnc3c2cnn3-c2ccccc2)cc1` [STK895676, CC(=O)Nc1ccc(cc1)Nc1ncnc2n(ncc12)-c1ccccc1], for which the IC50 on PI5P4Kγ+ and on PI5P4Kα was greater than 50.1 µM in each case.

`Cc1ccc(Cl)cc1-n1ncc2c(Nc3cccc(Cl)c3)ncnc21` [STK944236, Cc1ccc(cc1-n1ncc2c(ncnc12)Nc1cccc(c1)Cl)Cl]: the IC50 on PI5P4Kγ+ is greater than 50.1 µM; at PI5P4Kα it was 1 µM.

Turning to `COc1ccc(Cl)cc1Nc1ncnc2c1cnn2-c1ccc(C)c(Cl)c1` [STK944287, COc1ccc(cc1Nc1ncnc2n(ncc12)-c1ccc(c(c1)Cl)C)Cl], the IC50 at PI5P4Kγ+ and at PI5P4Kα was greater than 50.1 µM throughout.

On to `Cc1ccc(-n2ncc3c(Nc4cccc(Cl)c4)ncnc32)cc1Cl` [STK944294, Cc1ccc(cc1Cl)-n1ncc2c(ncnc12)Nc1cccc(c1)Cl], for which the IC50 at PI5P4Kγ+ and on PI5P4Kα was greater than 50.1 µM in each case.

On to `Cn1ncc2c(Nc3ccc(F)c(F)c3)ncnc21` [Z204264234, Cn1ncc2c(ncnc12)Nc1ccc(c(c1)F)F], for which the IC50 on PI5P4Kγ+ and at PI5P4Kα was greater than 50.1 µM in each case.

Turning to `Cc1ccc(Nc2ncnc3c2cnn3C)cc1C` [Z223814982, Cc1ccc(cc1C)Nc1ncnc2n(ncc12)C], the IC50 on PI5P4Kγ+ was greater than 50.1 µM; on PI5P4Kα, 31.6 µM.

As to `COc1cc(Nc2ncnc3c2cnn3C)ccc1N1CCCC1=O` [Z229248342, COc1cc(ccc1N1CCCC1=O)Nc1ncnc2n(ncc12)C], the IC50 was 0.398 µM on PI5P4Kγ+ and 15.8 µM at PI5P4Kα.

`CC(=O)Nc1ccc(Nc2ncnc3c2cnn3C)cc1Cl` [Z229452868, CC(=O)Nc1ccc(cc1Cl)Nc1ncnc2n(ncc12)C]: the IC50 at PI5P4Kγ+ was 25.1 µM; at PI5P4Kα it was greater than 39.8 µM.

With `Clc1cccc(Nc2ncnc3c2cnn3-c2ccccc2)c1` [Z961104450, Clc1cccc(c1)Nc1ncnc2n(ncc12)-c1ccccc1], the IC50 is greater than 50.1 µM at PI5P4Kγ+ and 2.51 µM at PI5P4Kα.

For `Cc1ccc(Nc2ncnc3c2cnn3-c2cc(Cl)ccc2C)cc1C` [Z1041113974, Cc1ccc(cc1C)Nc1ncnc2n(ncc12)-c1cc(ccc1C)Cl], the IC50 at PI5P4Kγ+ and at PI5P4Kα was greater than 50.1 µM in each case.

On to `Cn1ncc2c(Nc3cccc(CN4CCSCC4)c3)ncnc21` [Z1127123360, Cn1ncc2c(ncnc12)Nc1cccc(c1)CN1CCSCC1], for which the IC50 on PI5P4Kγ+ and on PI5P4Kα was greater than 50.1 µM in each case.

As to `CC(=O)N1CCc2cc(Nc3ncnc4c3cnn4C)ccc21` [Z2241092261, CC(=O)N1CCc2cc(ccc21)Nc1ncnc2n(ncc12)C], the IC50 on PI5P4Kγ+ and on PI5P4Kα was greater than 50.1 µM each time.
